Measurements taken from ChEMBL document CHEMBL2177034, “Inhibition of hypoxia inducible factor-2 transcription: isolation of active modulators from marine sponges” (J Nat Prod, 2012).
Activity calls are given as the source filed them. The rule behind the calls is not given here.

Legend:
[1] = biological target: T1, Endothelial PAS domain-containing protein 1 (Homo sapiens, UniProt Q99814); assay: Inhibition of HIF2alpha in human 786-0 cells assessed as reduction in CCND1 mRNA expression at 1 uM after 48 hrs by RT-PCR analysis; format: cell-based
[2] = biological target: T2, Hypoxia inducible factors; HIF-1-alpha, HIF-2-alpha (Homo sapiens) (UniProt Q16665+Q99814); assay: Inhibition of HIF1alpha/2alpha in human RCC4 cells assessed as reduction in VEGFA mRNA expression at 1 uM after 48 hrs by RT-PCR analysis; format: cell-based
[3] = biological target: T1, Endothelial PAS domain-containing protein 1; assay: Inhibition of HIF2alpha in human 786-0 cells expressing truncated HIF1alpha assessed as reduction in luciferase activity after 24 hrs by reporter gene assay; format: cell-based
[4] = Cytotoxicity against human SK-RC-28 cells expressing HIF1alpha after 2 days by XTT assay; format: functional, cell-based; conditions: 48 h
[5] = Downregulation of TGFalpha mRNA expression in human SK-RC-28 cells at 1 uM after 48 hrs by RT-PCR analysis; format: functional, cell-based
786-0 [6] = assay: Downregulation of HIF2alpha mRNA expression in human 786-0 cells at 1 uM after 48 hrs by RT-PCR analysis; format: functional, cell-based
[7] = biological target: T1, Endothelial PAS domain-containing protein 1; assay: Inhibition of HIF2alpha in human 786-0 cells assessed as reduction in VEGFA at 1 uM after 48 hrs by RT-PCR analysis; format: cell-based
[8] = Cytotoxicity against human RCC4 cells expressing HIF2alpha and HIF1alpha after 2 days by XTT assay; format: functional, cell-based; conditions: RCC4, 48 h
[9] = Downregulation of HIF2alpha mRNA expression in human SK-RC-28 cells at 1 uM after 48 hrs by RT-PCR analysis; format: functional, cell-based
[10] = biological target: Hypoxia-inducible factor 1-alpha (Homo sapiens) (UniProt Q16665); assay: Inhibition of HIF1alpha in human SK-RC-28 cells assessed as reduction in carbonic anhydrase 9 expression at 1 uM after 48 hrs by RT-PCR analysis; format: cell-based
[11] = biological target: T1, Endothelial PAS domain-containing protein 1; assay: Inhibition of HIF2alpha in human RCC4 cells coexpressing HIF1alpha assessed as reduction in CCND1 mRNA expression at 1 uM after 48 hrs by RT-PCR analysis; format: cell-based
[12] = Downregulation of HIF1alpha mRNA expression in human SK-RC-28 cells at 1 uM after 48 hrs by RT-PCR analysis; format: functional, cell-based
[13] = biological target: T1, Endothelial PAS domain-containing protein 1; assay: Inhibition of HIF2alpha in human RCC4 cells coexpressing HIF1alpha assessed as reduction in TGFalpha mRNA expression at 1 uM after 48 hrs by RT-PCR analysis; format: cell-based
[14] = Downregulation of GLUT1 mRNA expression in human SK-RC-28 cells at 1 uM after 48 hrs by RT-PCR analysis; format: functional, cell-based
[15] = Downregulation of CCND1 mRNA expression in human SK-RC-28 cells at 1 uM after 48 hrs by RT-PCR analysis; format: functional, cell-based
[16] = biological target: Hypoxia-inducible factor 1-alpha (Homo sapiens) (UniProt Q16665); assay: Inhibition of HIF1alpha in human SK-RC-28 cells assessed as reduction in VEGFA at 1 uM after 48 hrs by RT-PCR analysis; format: cell-based
786-0 [17] = assay: Down regulation of carbonic anhydrase 9 expression in human 786-0 cells at 1 uM after 48 hrs by RT-PCR analysis; format: functional, cell-based
786-0 [18] = assay: Inhibition of HIF-mediated VEGFA protein expression in serum deprived human 786-0 cells at 1 uM after 48 hrs relative to control; format: cell-based
[19] = biological target: Hypoxia-inducible factor 1-alpha (Homo sapiens) (UniProt Q16665); assay: Inhibition of HIF1alpha in human RCC4 cells coexpressing HIF2alpha assessed as decrease in carbonic anhydrase 9 mRNA expression at 1 uM after 48 hrs by RT-PCR analysis; format: cell-based
[20] = biological target: T1, Endothelial PAS domain-containing protein 1; assay: Inhibition of HIF2alpha in human 786-0 cells assessed as reduction in GLUT1 mRNA expression at 1 uM after 48 hrs by RT-PCR analysis; format: cell-based
[21] = Downregulation of HIF2alpha mRNA expression in human RCC4 cells at 1 uM after 48 hrs by RT-PCR analysis; format: functional, cell-based
[22] = Downregulation of HIF1alpha mRNA expression in human RCC4 cells at 1 uM after 48 hrs by RT-PCR analysis; format: functional, cell-based
[23] = biological target: T1, Endothelial PAS domain-containing protein 1; assay: Inhibition of HIF2alpha in human RCC4 cells coexpressing HIF1alpha assessed as reduction in GLUT1 mRNA expression at 1 uM after 48 hrs by RT-PCR analysis; format: cell-based
786-0 [24] = assay: Downregulation of HIF1alpha mRNA expression in human 786-0 cells at 1 uM after 48 hrs by RT-PCR analysis; format: functional, cell-based
[25] = biological target: T1, Endothelial PAS domain-containing protein 1; assay: Inhibition of HIF2alpha in human 786-0 cells assessed as reduction in TGFalpha mRNA expression at 1 uM after 48 hrs by RT-PCR analysis; format: cell-based
786-0 [26] = assay: Cytotoxicity against human 786-0 cells expressing HIF2alpha after 2 days by XTT assay; format: functional, cell-based; conditions: 786-0, 48 h
786-0 [27] = assay: Downregulation of HIF2alpha mRNA expression in human 786-0 cells at 20 uM after 48 hrs by RT-PCR analysis; format: functional, cell-based
[28] = Downregulation of CCND1 mRNA expression in human SK-RC-28 cells at 20 uM after 48 hrs by RT-PCR analysis; format: functional, cell-based
[29] = biological target: T1, Endothelial PAS domain-containing protein 1; assay: Inhibition of HIF2alpha in human 786-0 cells assessed as reduction in CCND1 mRNA expression at 20 uM after 48 hrs by RT-PCR analysis; format: cell-based
[30] = Downregulation of actin mRNA expression in human RCC4 cells expressing HIF1alpha and HIF2alpha at 20 uM after 48 hrs by RT-PCr analysis; format: ADME, cell-based; conditions: rcc4, 48 h
[31] = biological target: Hypoxia-inducible factor 1-alpha (Homo sapiens) (UniProt Q16665); assay: Inhibition of HIF1alpha in human RCC4 cells coexpressing HIF2alpha assessed as decrease in carbonic anhydrase 9 mRNA expression at 20 uM after 48 hrs by RT-PCR analysis; format: cell-based
[32] = Downregulation of GLUT1 mRNA expression in human SK-RC-28 cells at 20 uM after 48 hrs by RT-PCR analysis; format: functional, cell-based
[33] = biological target: Hypoxia-inducible factor 1-alpha (Homo sapiens) (UniProt Q16665); assay: Inhibition of HIF1alpha in human SK-RC-28 cells assessed as reduction in carbonic anhydrase 9 expression at 20 uM after 48 hrs by RT-PCR analysis; format: cell-based
[34] = biological target: T1, Endothelial PAS domain-containing protein 1; assay: Inhibition of HIF2alpha in human 786-0 cells assessed as reduction in TGFalpha mRNA expression at 20 uM after 48 hrs by RT-PCR analysis; format: cell-based
[35] = Downregulation of HIF1alpha mRNA expression in human SK-RC-28 cells at 20 uM after 48 hrs by RT-PCR analysis; format: functional, cell-based
[36] = biological target: T1, Endothelial PAS domain-containing protein 1; assay: Inhibition of HIF2alpha in human 786-0 cells assessed as reduction in VEGFA mRNA expression at 20 uM after 48 hrs by RT-PCR analysis; format: cell-based
786-0 [37] = assay: Downregulation of HIF1alpha mRNA expression in human 786-0 cells at 20 uM after 48 hrs by RT-PCR analysis; format: functional, cell-based
[38] = biological target: T1, Endothelial PAS domain-containing protein 1; assay: Inhibition of HIF2alpha in human RCC4 cells coexpressing HIF1alpha assessed as reduction in GLUT1 mRNA expression at 20 uM after 48 hrs by RT-PCR analysis; format: cell-based
786-0 [39] = assay: Inhibition of HIF-mediated VEGFA protein expression in serum deprived human 786-0 cells at 20 uM after 48 hrs relative to control; format: cell-based
786-0 [40] = assay: Inhibition of total protein expression in serum deprived human 786-0 cells at 20 uM after 48 hrs relative to control; format: cell-based; conditions: 786-0, 48 h, 20 µM
786-0 [41] = assay: Downregulation of actin mRNA expression in human […] at 20 uM after 48 hrs by RT-PCr analysis; format: ADME, cell-based; conditions: 786-0, 48 h
[42] = Downregulation of actin mRNA expression in human SK-RC-28 cells expressing HIF2alpha at 20 uM after 48 hrs by RT-PCr analysis; format: ADME, cell-based
[43] = biological target: T1, Endothelial PAS domain-containing protein 1; assay: Inhibition of HIF2alpha in human 786-0 cells assessed as reduction in GLUT1 mRNA expression at 20 uM after 48 hrs by RT-PCR analysis; format: cell-based
[44] = biological target: T1, Endothelial PAS domain-containing protein 1; assay: Inhibition of HIF2alpha in human RCC4 cells coexpressing HIF1alpha assessed as reduction in TGFalpha mRNA expression at 20 uM after 48 hrs by RT-PCR analysis; format: cell-based
[45] = Downregulation of HIF2alpha mRNA expression in human SK-RC-28 cells at 20 uM after 48 hrs by RT-PCR analysis; format: functional, cell-based
[46] = biological target: Hypoxia-inducible factor 1-alpha (Homo sapiens) (UniProt Q16665); assay: Inhibition of HIF1alpha in human SK-RC-28 cells assessed as reduction in carbonic anhydrase expression at 20 uM after 48 hrs by RT-PCR analysis; format: cell-based
[47] = biological target: T2, Hypoxia inducible factors; HIF-1-alpha, HIF-2-alpha (Homo sapiens); assay: Inhibition of HIF1alpha/2alpha in human RCC4 cells assessed as reduction in VEGFA mRNA expression at 20 uM after 48 hrs by RT-PCR analysis; format: cell-based
[48] = Downregulation of TGFalpha mRNA expression in human SK-RC-28 cells at 20 uM after 48 hrs by RT-PCR analysis; format: functional, cell-based
[49] = (§1) Downregulation of HIF1alpha mRNA expression in human RCC4 cells at 20 uM after 48 hrs by RT-PCR analysis; format: functional, cell-based
786-0 [50] = assay: Downregulation of carbonic anhydrase 9 expression in human 786-0 cells at 20 uM after 48 hrs by RT-PCR analysis; format: functional, cell-based
[51] = (§2) Downregulation of HIF2alpha mRNA expression in human RCC4 cells at 20 uM after 48 hrs by RT-PCR analysis; format: functional, cell-based
[52] = as §1; format: functional, cell-based; remark: listed apart in the source
[53] = as §2; format: functional, cell-based; remark: listed apart in the source
[54] = biological target: Hypoxia-inducible factor 1-alpha (Homo sapiens) (UniProt Q16665); assay: Inhibition of HIF1alpha in human SK-RC-28 cells assessed as reduction in VEGFA expression at 20 uM after 48 hrs by RT-PCR analysis; format: cell-based
[55] = biological target: T1, Endothelial PAS domain-containing protein 1; assay: Inhibition of HIF2alpha in human RCC4 cells coexpressing HIF1alpha assessed as reduction in CCND1 mRNA expression at 20 uM after 48 hrs by RT-PCR analysis; format: cell-based

Hypoxia-inducible factor 1-alpha (Homo sapiens), sequence (Q16665 whole entry, looked up, the tested form may be a part): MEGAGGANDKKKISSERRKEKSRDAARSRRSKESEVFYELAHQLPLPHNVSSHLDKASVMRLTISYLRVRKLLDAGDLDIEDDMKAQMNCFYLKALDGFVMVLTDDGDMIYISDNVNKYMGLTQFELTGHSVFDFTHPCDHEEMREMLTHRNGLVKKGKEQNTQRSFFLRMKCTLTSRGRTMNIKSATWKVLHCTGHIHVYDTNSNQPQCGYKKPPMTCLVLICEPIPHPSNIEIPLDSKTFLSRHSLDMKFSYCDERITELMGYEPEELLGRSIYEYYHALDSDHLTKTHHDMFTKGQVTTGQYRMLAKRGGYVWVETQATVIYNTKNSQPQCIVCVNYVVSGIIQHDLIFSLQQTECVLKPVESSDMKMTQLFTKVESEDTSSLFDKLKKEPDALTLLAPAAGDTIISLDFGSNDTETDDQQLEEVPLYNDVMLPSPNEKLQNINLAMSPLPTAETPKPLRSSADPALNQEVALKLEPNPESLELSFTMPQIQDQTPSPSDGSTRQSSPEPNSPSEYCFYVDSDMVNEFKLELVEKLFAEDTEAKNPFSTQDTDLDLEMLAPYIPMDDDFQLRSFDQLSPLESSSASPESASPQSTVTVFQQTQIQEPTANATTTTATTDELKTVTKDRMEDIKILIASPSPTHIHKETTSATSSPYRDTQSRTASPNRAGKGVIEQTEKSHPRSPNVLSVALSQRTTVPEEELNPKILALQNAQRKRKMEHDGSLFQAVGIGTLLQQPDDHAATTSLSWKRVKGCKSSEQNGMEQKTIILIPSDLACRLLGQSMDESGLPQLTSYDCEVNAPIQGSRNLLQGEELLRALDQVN
T1 sequence (Q99814 whole entry, the tested form may be a part): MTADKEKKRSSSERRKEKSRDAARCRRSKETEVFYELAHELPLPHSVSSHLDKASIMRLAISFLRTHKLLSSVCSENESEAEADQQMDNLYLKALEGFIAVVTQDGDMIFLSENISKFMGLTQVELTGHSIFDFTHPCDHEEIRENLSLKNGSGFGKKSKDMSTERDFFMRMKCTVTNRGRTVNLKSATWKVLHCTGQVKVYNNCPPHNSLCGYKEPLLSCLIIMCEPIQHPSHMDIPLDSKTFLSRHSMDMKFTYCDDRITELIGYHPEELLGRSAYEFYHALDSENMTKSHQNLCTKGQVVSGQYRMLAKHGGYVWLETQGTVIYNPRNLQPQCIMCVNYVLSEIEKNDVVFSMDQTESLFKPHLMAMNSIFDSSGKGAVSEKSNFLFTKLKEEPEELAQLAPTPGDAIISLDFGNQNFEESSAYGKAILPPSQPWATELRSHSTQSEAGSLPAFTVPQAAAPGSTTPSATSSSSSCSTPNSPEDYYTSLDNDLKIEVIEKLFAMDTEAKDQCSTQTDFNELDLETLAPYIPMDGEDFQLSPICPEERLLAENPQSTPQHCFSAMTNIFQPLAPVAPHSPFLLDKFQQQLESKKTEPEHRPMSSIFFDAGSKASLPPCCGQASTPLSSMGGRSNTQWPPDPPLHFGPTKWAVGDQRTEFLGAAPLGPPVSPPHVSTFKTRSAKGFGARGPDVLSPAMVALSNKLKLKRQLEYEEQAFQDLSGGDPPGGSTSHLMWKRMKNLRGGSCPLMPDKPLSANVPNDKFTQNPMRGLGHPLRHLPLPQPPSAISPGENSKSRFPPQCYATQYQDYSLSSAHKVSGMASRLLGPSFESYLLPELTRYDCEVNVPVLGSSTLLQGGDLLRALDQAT

Q: For `Nc1nccc(-c2c3c(O)ccnc3n3c(N)nccc23)n1` [VARIOLIN B], which inhibition [1] is on record?
A: inactive

Q: What about the inhibition [2] of the same molecule?
A: inactive

Q: What about the EC50 [3] of the same molecule?
A: 0.7 µM

Q: And the IC50 [4]?
A: > 100 µM

Q: What about the Activity [5] of the same molecule?
A: inactive

Q: And the Activity (786-0 [6])?
A: inactive

Q: And the inhibition [7]?
A: inactive

Q: And the IC50 [8]?
A: 8.8 µM

Q: And the Activity [9]?
A: inactive

Q: What about the inhibition [10] of the same molecule?
A: inactive

Q: What about the inhibition [11] of the same molecule?
A: inactive

Q: And the Activity [12]?
A: inactive

Q: And the inhibition [13]?
A: inactive

Q: And the Activity [14]?
A: inactive

Q: And the Activity [15]?
A: inactive

Q: And the inhibition [16]?
A: inactive

Q: And the Activity (786-0 [17])?
A: inactive

Q: What about the inhibition (786-0 [18]) of the same molecule?
A: 50%

Q: What about the inhibition [19] of the same molecule?
A: inactive

Q: What about the inhibition [20] of the same molecule?
A: inactive

Q: And the Activity [21]?
A: inactive

Q: And the Activity [22]?
A: inactive

Q: What about the inhibition [23] of the same molecule?
A: inactive

Q: And the Activity (786-0 [24])?
A: inactive

Q: What about the inhibition [25] of the same molecule?
A: inactive

Q: And the IC50 (786-0 [26])?
A: > 100 µM

Q: Which results are given for `C#C[C@@H](O)/C=C/CCCCCCC#C[C@H](O)C#C/C=C/CC/C=C\CCCC/C=C\CCCCCCCCCCCCC/C=C/[C@@H](O)C#C` [NEOPETROFORMYNE A]?
A: Activity (786-0 [27]): Active; Activity [28]: Active; EC50 [3]: 8.7 µM; IC50 [4]: 35.1 µM; inhibition [29]: Active; Activity [30]: Toxic; inhibition [31]: Active; Activity [32]: Active; inhibition [33]: Active; inhibition [34]: Active; Activity [35]: Active; inhibition [36]: Active; Activity (786-0 [37]): Active; inhibition [38]: Active; inhibition (786-0 [39]): Active; Activity (786-0 [40]): Toxic; Activity (786-0 [41]): Toxic; IC50 [8]: 27.5 µM; Activity [42]: Toxic; inhibition [43]: Active; inhibition [44]: Active; Activity [45]: Active; inhibition [46]: Active; inhibition [47]: Active; Activity [48]: Active; Activity [49]: Active; Activity (786-0 [50]): Active; Activity [51]: Active; Activity [52]: Active; IC50 (786-0 [26]): 14.4 µM; Activity [53]: Active; inhibition [54]: Active; inhibition [55]: Active
